Among the data in patent US20060252807A1, “Novel ortho-terphenyl inhibitors of p38 kinase and methods of treating inflammatory disorders” (Kalypsys, Inc., priority 2005, published 2006) are IC50 values, retold here.

Molecules are shown by their SMILES.

The target of the first assay is T1, active p38 alpha enzyme (Upstate Biotechnology) (Homo sapiens, UniProt Q16539).
T1 construct: purchased Upstate Biotechnology
T1 sequence (Q16539 whole entry): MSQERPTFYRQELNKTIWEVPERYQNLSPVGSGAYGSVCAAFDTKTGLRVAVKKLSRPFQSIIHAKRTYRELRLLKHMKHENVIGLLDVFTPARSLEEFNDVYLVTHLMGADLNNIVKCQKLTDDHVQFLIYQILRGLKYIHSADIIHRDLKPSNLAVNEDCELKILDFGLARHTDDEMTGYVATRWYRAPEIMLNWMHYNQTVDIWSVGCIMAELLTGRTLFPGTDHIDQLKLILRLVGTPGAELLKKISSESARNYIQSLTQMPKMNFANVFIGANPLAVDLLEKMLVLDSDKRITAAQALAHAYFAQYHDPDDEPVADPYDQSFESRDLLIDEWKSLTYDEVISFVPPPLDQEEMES
In words: p38α biochemical assay (ATP turnover, luminescent detection, Cambrex PKlight). To be noted: p38α biochemical assay, Table 1 Biological Activity. In a few lines: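 Luminescent PKlight readout of total ATP consumption follows a 2 h, 30C kinase reaction. Enzyme and MapkapK2 substrate run with 1.4 uM ATP (final) in buffer containing Mg2+, Ca2+, chelators, glycerol, reducing agent and BSA; test compounds added by pintool from DMSO.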
`CC(C)NC(=O)c1csc(-c2oc(CN3CCN(C(=O)c4c(F)c(F)c(F)c(F)c4F)CC3)nc2-c2ccc(F)cc2)n1` [Example 519] returned an IC50 of no more than 1000 nM.

As for `CC1=NN(c2ccc(C(=O)NCc3onc(-c4ccc(F)cc4)c3-c3nc(C(=O)NC(C)C)cs3)cc2)C(=O)C1` [Example 776], the IC50 is greater than 1000 nM.

The molecule `CC(C)NC(=O)c1csc(-c2oc(CNC(=O)C3=CCCC3)nc2-c2ccc(F)cc2)n1` [Example 107] came in with an IC50 greater than 1000 nM.

Molecule `COc1cc(Cl)ccc1C(=O)NCc1nc(-c2ccc(F)cc2)c(-c2nc(C(=O)NC(C)C)cs2)o1` [Example 239] gave an IC50 greater than 1000 nM.

The molecule `CC(C)NC(=O)c1csc(-c2oc(CNC(=O)C(Cc3ccc(O)cc3)NC(=O)OC(C)(C)C)nc2-c2ccc(F)cc2)n1` (centres unmarked) [Example 334] returned an IC50 of no more than 1000 nM.

Molecule `CC(C)NC(=O)c1csc(-c2oc(CN3CCN(C(=O)Cc4c(F)cccc4F)CC3)nc2-c2ccc(F)cc2)n1` [Example 430] yielded an IC50 greater than 1000 nM.

In turn, `CC(C)NC(=O)c1csc(-c2c(-c3ccc(F)cc3)noc2CNC(=O)/C=C/c2ccccc2)n1` [Example 606] returned an IC50 greater than 1000 nM.

On to `CC(C)NC(=O)c1csc(-c2c(-c3ccc(F)cc3)noc2CNC(=O)c2ccnc(Cl)c2)n1` [Example 629], for which the IC50 was greater than 1000 nM.

For the molecule `CC(C)NC(=O)c1csc(-c2oc(CN3CCN(C(=O)CC4Cc5ccccc5C4)CC3)nc2-c2ccc(F)cc2)n1` [Example 440], the IC50 was no more than 1000 nM.

As for `CCNC(=O)c1csc(-c2sc(C)nc2-c2ccc(F)cc2)n1` [Example 48, 4′-(4-Fluoro-phenyl)-2′-methyl-|2,5′|bithiazolyl-4-carboxylic acid ethylamide], the IC50 was no more than 1000 nM.

Take `COc1cccc(C(=O)NCc2nc(-c3ccc(F)cc3)c(-c3nc(C(=O)NC(C)C)cs3)o2)c1OC` [Example 228]: the IC50 was greater than 1000 nM.

As for `CC(C)NC(=O)c1csc(-c2oc(CNC(=O)c3cccc(Cl)c3Cl)nc2-c2ccc(F)cc2)n1` [Example 251], the half-maximal inhibitory concentration (IC50) was no more than 1000 nM.

Molecule `CC(C)NC(=O)c1csc(-c2c(-c3ccc(F)cc3)noc2CNC(=O)c2ccc(Oc3ccccc3)cc2)n1` [Example 765] showed an IC50 greater than 1000 nM.

`COc1ccc(Cl)cc1C(=O)NCc1onc(-c2ccc(F)cc2)c1-c1nc(C(=O)NC(C)C)cs1` [Example 713] came in with an IC50 greater than 1000 nM.

`CC(C)NC(=O)c1csc(-c2oc(CN3CCN(C(=O)c4cc5ccccc5o4)CC3)nc2-c2ccc(F)cc2)n1` [Example 400] displayed an IC50 greater than 1000 nM.

As to `CC(C)NC(=O)c1csc(-c2oc(CNC(=O)c3cc(Cl)ccc3[N+](=O)[O-])nc2-c2ccc(F)cc2)n1` [Example 275], the half-inhibitory concentration (IC50) was no more than 1000 nM.

`CC(C)NC(=O)c1csc(-c2oc(CN3CCN(C(=O)c4ccc(C=O)cc4)CC3)nc2-c2ccc(F)cc2)n1` [Example 370] showed an IC50 greater than 1000 nM.

The molecule `CC(C)NC(=O)c1csc(-c2c(-c3ccc(F)cc3)noc2CNC(=O)CCc2ccccc2O)n1` [Example 656] yielded an IC50 greater than 1000 nM.

In turn, `CC(C)NC(=O)c1csc(-c2c(-c3ccc(F)cc3)noc2CNC(=O)c2ccc(OCc3ccccc3)cc2)n1` [Example 783] gave an IC50 greater than 1000 nM.

The molecule `CC(C)NC(=O)c1csc(-c2oc(CNC(=O)c3ccc([N+](=O)[O-])c(O)c3)nc2-c2ccc(F)cc2)n1` [Example 232] returned an IC50 greater than 1000 nM.

Turning to `CC(C)NC(=O)c1csc(-c2c(-c3ccc(F)cc3)noc2CNC(=O)c2ccc(C(F)(F)F)cc2[N+](=O)[O-])n1` [Example 794], the IC50 is greater than 1000 nM.

`CCOC(=O)CC(=O)N1CCN(Cc2nc(-c3ccc(F)cc3)c(-c3nc(C(=O)NC(C)C)cs3)o2)CC1` [Example 357] yielded an IC50 of no more than 1000 nM.

Take `CC(C)NC(=O)c1csc(-c2oc(CNC(=O)c3cn(C)cn3)nc2-c2ccc(F)cc2)n1` [Example 117]: the IC50 was greater than 1000 nM.

In turn, `CC(C)NC(=O)c1csc(-c2c(-c3ccc(F)cc3)n[nH]c2C2CCNCC2)n1` [Example 61, 2-|3-(4-Fluoro-phenyl)-5-piperidin-4-yl-1H-pyrazol-4-yl|-thiazole-4-carboxylic acid isopropylamide] came in with an IC50 of no more than 1000 nM.

For the molecule `COc1cc(C(=O)N2CCN(Cc3nc(-c4ccc(F)cc4)c(-c4nc(C(=O)NC(C)C)cs4)o3)CC2)cc(OC)c1OC` [Example 522], the IC50 was greater than 1000 nM.

Still in this assay, the particulars now being: p38α kinase; Table 1 Biological Activity.
`CC(C)NC(=O)c1csc(-c2c(-c3ccc(F)cc3)noc2CNCCC2CCCN2C)n1` (centres unmarked) [Example 1438] registered an IC50 greater than 1000 nM.

`COc1ccc(CNC(=O)c2csc(-c3c(-c4ccc(F)cc4)n[nH]c3C3CCNCC3)n2)cc1OC` [Example 2139] had an IC50 greater than 1000 nM.

Molecule `CC(C)NC(=O)c1csc(-c2c(-c3ccc(F)cc3)noc2CNCCc2ccc(F)cc2)n1` [Example 1458] came in with an IC50 greater than 1000 nM.

`CC(C)NC(=O)c1csc(-c2c(-c3ccc(F)cc3)noc2CNCCC(c2ccccc2)c2ccccc2)n1` [Example 1506]: the IC50 was greater than 1000 nM.

Molecule `Cc1nc(-c2ccc(F)cc2)c(-c2nc(C(=O)N(CCO)CCO)cs2)s1` [Example 1855] came in with an IC50 greater than 1000 nM.

In the case of `CCCCCCCC(=O)N1CCC(c2[nH]nc(-c3ccc(F)cc3)c2-c2nc(C(=O)NC(C)C)cs2)CC1` [Example 842], the IC50 is greater than 1000 nM.

In turn, `CCCC(C)NCc1onc(-c2ccc(F)cc2)c1-c1nc(C(=O)NC(C)C)cs1` (centres unmarked) [Example 1398] gave a half-inhibitory concentration (IC50) greater than 1000 nM.

As to `CCC(=O)C(=O)N1CCC(c2[nH]nc(-c3ccc(F)cc3)c2-c2nc(C(=O)NC(C)C)cs2)CC1` [Example 816], the IC50 is greater than 1000 nM.

Consider `CC(C)NC(=O)C1=CSC(c2c(-c3ccc(F)cc3)noc2CN2CCN(c3ccc(F)cc3)CC2)=NC1` [Example 1580], for which the IC50 is greater than 1000 nM.

For `Cc1nc(-c2ccc(F)cc2)c(-c2nc(C(=O)Nc3cc(C(F)(F)F)cc(C(F)(F)F)c3)cs2)s1` [Example 2023], the IC50 is greater than 1000 nM.

With `CCCN(CCC)C(=O)c1csc(-c2sc(C)nc2-c2ccc(F)cc2)n1` [Example 1853], the IC50 was greater than 1000 nM.

`Cc1nc(-c2ccc(F)cc2)c(-c2nc(C(=O)NCCN(C(C)C)C(C)C)cs2)s1` [Example 1793]: the IC50 is greater than 1000 nM.

With `C=CCN(Cc1onc(-c2ccc(F)cc2)c1-c1nc(C(=O)NC(C)C)cs1)C1CCCCC1` [Example 1556], the IC50 was greater than 1000 nM.

`Cc1nc(-c2ccc(F)cc2)c(-c2nc(C(=O)NCCc3ccc(O)cc3)cs2)s1` [Example 1777] gave an IC50 of no more than 1000 nM.

Molecule `CC(C)NC(=O)c1csc(-c2oc(CNC(C)CO)nc2-c2ccc(F)cc2)n1` (centres unmarked) [Example 1064] gave an IC50 of no more than 1000 nM.

For the molecule `Cc1ccccc1CNCc1nc(-c2ccc(F)cc2)c(-c2nc(C(=O)NC(C)C)cs2)o1` [Example 1100], the IC50 is greater than 1000 nM.

In the case of `CC(C)NC(=O)c1csc(-c2c(-c3ccc(F)cc3)n[nH]c2C2CCN(C(=O)C(C)(C)O)CC2)n1` [Example 2166, 2-{3-(4-Fluoro-phenyl)-5-|1-(2-hydroxy-2-methyl-propionyl)-piperidin-4-yl|-1H-pyrazol-4-yl}-thiazole-4-carboxylic acid isopropylamide], the IC50 was no more than 1000 nM.

For `CC(C)NC(=O)c1csc(-c2oc(CN(C)C[C@H](O)c3ccc(O)c(O)c3)nc2-c2ccc(F)cc2)n1` [Example 1256], the IC50 was greater than 1000 nM.

For the molecule `CCCCN(Cc1ccccc1)Cc1nc(-c2ccc(F)cc2)c(-c2nc(C(=O)NC(C)C)cs2)o1` [Example 1243], the IC50 is greater than 1000 nM.

Turning to `CC(C)NC(=O)c1csc(-c2c(-c3ccc(F)cc3)noc2CNc2ccc(F)cc2F)n1` [Example 1654], the IC50 was greater than 1000 nM.

The molecule `COc1cccc(CNC(=O)c2csc(-c3sc(C)nc3-c3ccc(F)cc3)n2)c1` [Example 1781] returned an IC50 of no more than 1000 nM.

Take `CC(C)NC(=O)c1csc(-c2c(-c3ccc(F)cc3)noc2CNc2ccccc2F)n1` [Example 1638]: the IC50 is greater than 1000 nM.

The molecule `Cc1c(F)cccc1NCc1onc(-c2ccc(F)cc2)c1-c1nc(C(=O)NC(C)C)cs1` [Example 1652] gave an IC50 greater than 1000 nM.

`CCOC(=O)N1CCC(NCc2onc(-c3ccc(F)cc3)c2-c2nc(C(=O)NC(C)C)cs2)CC1` [Example 1376] gave an IC50 greater than 1000 nM.

Turning to `COc1ccccc1CNC(=O)c1csc(-c2sc(C)nc2-c2ccc(F)cc2)n1` [Example 1779], the IC50 is no more than 1000 nM.

For the molecule `CC(C)NC(=O)c1csc(-c2oc(CNCc3ccc(F)c(Cl)c3)nc2-c2ccc(F)cc2)n1` [Example 1154], the IC50 is greater than 1000 nM.

`CC(C)NC(=O)c1csc(-c2c(-c3ccc(F)cc3)noc2CN2CCOCC2)n1` [Example 1509]: the IC50 is greater than 1000 nM.

On to `COc1ccc(CNC(=O)c2csc(-c3sc(C)nc3-c3ccc(F)cc3)n2)cc1` [Example 1780], for which the IC50 is no more than 1000 nM.

The molecule `CC(C)NC(=O)c1csc(-c2c(-c3ccc(F)cc3)n[nH]c2C2CCN(C(=O)c3cccc(Br)n3)CC2)n1` [Example 990] returned an IC50 greater than 1000 nM.

In the case of `CC(C)NC(=O)c1csc(-c2c(-c3ccc(F)cc3)noc2CNc2cnc3ccccc3c2)n1` [Example 1669], the IC50 is greater than 1000 nM.

`Cc1ccccc1C(=O)N1CCC(c2[nH]nc(-c3ccc(F)cc3)c2-c2nc(C(=O)NC(C)C)cs2)CC1` [Example 836] returned an IC50 of no more than 1000 nM.

`CC(C)NC(=O)c1csc(-c2c(-c3ccc(F)cc3)noc2CNC2CCN(Cc3ccccc3)C2)n1` (centres unmarked) [Example 1497]: the IC50 is greater than 1000 nM.

For `Cc1nc(-c2ccc(F)cc2)c(-c2nc(C(=O)NCc3ccc(C(F)(F)F)cc3)cs2)s1` [Example 1818], the IC50 was no more than 1000 nM.

In the case of `Cc1ccc(S(=O)(=O)NCCNC(=O)c2csc(-c3sc(C)nc3-c3ccc(F)cc3)n2)cc1` [Example 1832], the IC50 was no more than 1000 nM.

In turn, `CC(C)NC(=O)c1csc(-c2oc(CNCc3ccc(F)c(F)c3)nc2-c2ccc(F)cc2)n1` [Example 1135] had an IC50 greater than 1000 nM.

`CC(C)NC(=O)c1csc(-c2c(-c3ccc(F)cc3)noc2CNc2ccccc2)n1` [Example 1630] showed an IC50 greater than 1000 nM.

With `O=C(NCCCc1ccccc1)c1csc(-c2c(-c3ccc(F)cc3)n[nH]c2C2CCNCC2)n1` [Example 2096], the IC50 was greater than 1000 nM.
